PubChem BioAssay (NCI)
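Five compound concentrations were applied to cells in 96-well plates for 48 hours; endpoints were derived by simple linear interpolation of the resulting dose-response curve. TGI marks complete inhibition of growth.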

Assays:
Test in all cases: NCI-60 cell line screen, 48 h
NCI-H522 lung = tested on: NCI-H522 lung
HT29 colon = tested on: HT29 colon
EKVX NSCLC = tested on: EKVX NSCLC
A549 NSCLC = tested on: A549 NSCLC
MDA-N = tested on: MDA-N
UACC-257 melanoma = tested on: UACC-257 melanoma
MDA-MB-435 = tested on: MDA-MB-435
SK-MEL-5 melanoma = tested on: SK-MEL-5 melanoma
SK-MEL-2 melanoma = tested on: SK-MEL-2 melanoma
HL-60(TB) leukemia = tested on: HL-60(TB) leukemia
MDA-MB-231 breast = tested on: MDA-MB-231 breast
SF-268 CNS = tested on: SF-268 CNS
SF-295 CNS = tested on: SF-295 CNS
SK-MEL-28 melanoma = tested on: SK-MEL-28 melanoma
HCT-116 colon = tested on: HCT-116 colon
K-562 leukemia = tested on: K-562 leukemia
U251 CNS = tested on: U251 CNS
HS 578T breast = tested on: HS 578T breast
MCF7 breast = tested on: MCF7 breast
LOX IMVI melanoma = tested on: LOX IMVI melanoma
MOLT-4 leukemia = tested on: MOLT-4 leukemia
COLO 205 colon = tested on: COLO 205 colon
HOP-92 NSCLC = tested on: HOP-92 NSCLC
DU-145 prostate = tested on: DU-145 prostate
SF-539 CNS = tested on: SF-539 CNS
NCI-H460 lung = tested on: NCI-H460 lung
CAKI-1 renal = tested on: CAKI-1 renal
SNB-75 CNS = tested on: SNB-75 CNS
A498 renal = tested on: A498 renal
UACC-62 melanoma = tested on: UACC-62 melanoma
PC-3 prostate = tested on: PC-3 prostate
NCI/ADR-RES ovarian = tested on: NCI/ADR-RES ovarian
NCI-H23 lung = tested on: NCI-H23 lung
SW-620 colon = tested on: SW-620 colon
MALME-3M melanoma = tested on: MALME-3M melanoma
KM12 colon = tested on: KM12 colon
TK-10 renal = tested on: TK-10 renal
SK-OV-3 ovarian = tested on: SK-OV-3 ovarian
IGROV1 ovarian = tested on: IGROV1 ovarian
M14 melanoma = tested on: M14 melanoma
UO-31 renal = tested on: UO-31 renal
CCRF-CEM leukemia = tested on: CCRF-CEM leukemia
OVCAR-8 ovarian = tested on: OVCAR-8 ovarian
HCT-15 colon = tested on: HCT-15 colon
BT-549 breast = tested on: BT-549 breast
RXF 393 renal = tested on: RXF 393 renal
OVCAR-5 ovarian = tested on: OVCAR-5 ovarian
SNB-19 CNS = tested on: SNB-19 CNS
ACHN renal = tested on: ACHN renal
OVCAR-4 ovarian = tested on: OVCAR-4 ovarian
786-0 renal = tested on: 786-0 renal
T-47D breast = tested on: T-47D breast
NCI-H226 lung = tested on: NCI-H226 lung
SN12C renal = tested on: SN12C renal
HCC-2998 colon = tested on: HCC-2998 colon
HOP-62 NSCLC = tested on: HOP-62 NSCLC
OVCAR-3 ovarian = tested on: OVCAR-3 ovarian
RPMI-8226 leukemia = tested on: RPMI-8226 leukemia

Measured: TGI

c1cnc(N2CCN(Cc3c[nH]c4ccccc34)CC2)nc1
38.9 µM: HCC-2998 colon
72.2 µM: T-47D breast
76.6 µM: KM12 colon
31.4 µM: SK-MEL-2 melanoma
67 µM: SF-539 CNS
94.2 µM: DU-145 prostate
31.9 µM: 786-0 renal
67.6 µM: COLO 205 colon
53.7 µM: MCF7 breast
63.7 µM: RPMI-8226 leukemia
> 100 µM: all other assays above
